{"source": "paper PMC10004634", "about": "(PLOS ONE, 2023)", "assay_in_all_cases": "biochemical", "parameters_in_all_cases": "KINOMEscan scanMAX competition binding, DNA-tagged kinases, qPCR read-out, percent control at 300 nM", "key": {"PIK4CB": {"molecular_target": "T1, PIK4CB (Homo sapiens, UniProt Q9UBF8)", "T1 construct": "gene PI4KB", "T1 sequence (Q9UBF8 whole entry)": "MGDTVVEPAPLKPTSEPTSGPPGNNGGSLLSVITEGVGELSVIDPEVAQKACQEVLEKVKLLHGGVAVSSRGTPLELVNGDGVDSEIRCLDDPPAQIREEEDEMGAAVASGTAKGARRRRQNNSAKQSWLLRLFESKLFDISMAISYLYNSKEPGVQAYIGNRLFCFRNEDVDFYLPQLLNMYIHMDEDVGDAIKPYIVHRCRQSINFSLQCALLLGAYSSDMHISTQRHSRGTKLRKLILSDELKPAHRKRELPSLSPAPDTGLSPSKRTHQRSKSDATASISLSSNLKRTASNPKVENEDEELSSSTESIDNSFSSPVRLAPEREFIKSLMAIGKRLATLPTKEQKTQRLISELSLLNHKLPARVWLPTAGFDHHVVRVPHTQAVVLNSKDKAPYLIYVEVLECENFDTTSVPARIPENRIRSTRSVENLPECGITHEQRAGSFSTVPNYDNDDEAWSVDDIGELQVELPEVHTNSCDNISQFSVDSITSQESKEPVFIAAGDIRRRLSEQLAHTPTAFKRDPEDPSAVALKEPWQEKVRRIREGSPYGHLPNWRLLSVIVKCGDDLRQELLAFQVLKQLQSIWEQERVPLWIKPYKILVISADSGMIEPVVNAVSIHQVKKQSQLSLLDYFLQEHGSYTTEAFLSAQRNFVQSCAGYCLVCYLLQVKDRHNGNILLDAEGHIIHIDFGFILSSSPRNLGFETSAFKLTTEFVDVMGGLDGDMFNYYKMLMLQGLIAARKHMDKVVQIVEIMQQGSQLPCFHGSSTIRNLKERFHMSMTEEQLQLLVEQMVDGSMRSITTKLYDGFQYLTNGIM"}, "PIM2": {"molecular_target": "PIM2 (Homo sapiens, UniProt Q9P1W9)", "sequence (Q9P1W9 whole entry)": "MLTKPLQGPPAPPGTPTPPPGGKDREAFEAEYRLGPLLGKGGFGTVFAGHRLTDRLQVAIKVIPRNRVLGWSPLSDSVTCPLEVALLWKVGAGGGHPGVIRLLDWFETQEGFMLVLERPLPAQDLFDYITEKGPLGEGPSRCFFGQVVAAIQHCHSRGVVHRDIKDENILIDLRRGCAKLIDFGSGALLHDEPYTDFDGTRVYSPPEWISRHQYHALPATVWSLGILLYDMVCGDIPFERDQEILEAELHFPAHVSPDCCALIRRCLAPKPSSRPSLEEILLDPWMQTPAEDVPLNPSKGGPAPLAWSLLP"}, "EPHB6": {"molecular_target": "T2, EPHB6 (Homo sapiens, UniProt O15197)", "T2 sequence (O15197 1-1021)": "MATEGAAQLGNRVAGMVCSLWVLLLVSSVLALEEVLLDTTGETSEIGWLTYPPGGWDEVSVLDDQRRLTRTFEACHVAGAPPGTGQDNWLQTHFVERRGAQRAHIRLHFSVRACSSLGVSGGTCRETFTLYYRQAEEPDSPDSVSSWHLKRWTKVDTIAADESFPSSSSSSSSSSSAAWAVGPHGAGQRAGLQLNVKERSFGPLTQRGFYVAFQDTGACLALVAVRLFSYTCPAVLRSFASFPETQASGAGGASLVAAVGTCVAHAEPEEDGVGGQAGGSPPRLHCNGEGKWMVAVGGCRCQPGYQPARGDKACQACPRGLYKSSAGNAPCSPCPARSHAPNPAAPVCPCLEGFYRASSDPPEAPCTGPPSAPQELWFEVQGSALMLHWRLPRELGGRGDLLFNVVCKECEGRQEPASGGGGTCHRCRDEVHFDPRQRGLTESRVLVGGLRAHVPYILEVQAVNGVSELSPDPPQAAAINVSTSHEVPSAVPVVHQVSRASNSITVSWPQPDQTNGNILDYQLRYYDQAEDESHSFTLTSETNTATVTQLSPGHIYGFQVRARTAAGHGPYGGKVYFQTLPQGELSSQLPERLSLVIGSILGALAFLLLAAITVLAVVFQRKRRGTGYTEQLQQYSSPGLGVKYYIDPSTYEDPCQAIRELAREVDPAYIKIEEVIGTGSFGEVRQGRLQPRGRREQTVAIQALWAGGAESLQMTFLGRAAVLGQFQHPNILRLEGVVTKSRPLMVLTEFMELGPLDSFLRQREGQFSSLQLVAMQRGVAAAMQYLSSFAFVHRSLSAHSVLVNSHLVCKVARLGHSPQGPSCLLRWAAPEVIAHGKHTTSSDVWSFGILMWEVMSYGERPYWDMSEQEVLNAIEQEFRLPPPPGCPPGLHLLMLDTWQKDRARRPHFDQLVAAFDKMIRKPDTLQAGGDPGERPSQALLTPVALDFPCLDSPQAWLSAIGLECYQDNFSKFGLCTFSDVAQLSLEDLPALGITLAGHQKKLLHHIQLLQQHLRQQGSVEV"}, "CSNK1A1L": {"molecular_target": "T3, CSNK1A1L (Homo sapiens, UniProt Q8N752)", "T3 sequence (Q8N752 1-337)": "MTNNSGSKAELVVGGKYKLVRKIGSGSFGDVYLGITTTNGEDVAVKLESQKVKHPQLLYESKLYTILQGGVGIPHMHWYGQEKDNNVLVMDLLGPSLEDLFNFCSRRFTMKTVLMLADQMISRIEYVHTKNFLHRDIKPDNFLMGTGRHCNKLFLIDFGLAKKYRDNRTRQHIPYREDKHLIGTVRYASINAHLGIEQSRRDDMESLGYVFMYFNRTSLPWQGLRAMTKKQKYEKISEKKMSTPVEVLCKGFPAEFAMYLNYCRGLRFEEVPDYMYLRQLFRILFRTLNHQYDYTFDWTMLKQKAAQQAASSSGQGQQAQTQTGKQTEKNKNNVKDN"}, "DAPK2": {"molecular_target": "DAPK2 (Homo sapiens, UniProt Q9UIK4)", "sequence (Q9UIK4 whole entry)": "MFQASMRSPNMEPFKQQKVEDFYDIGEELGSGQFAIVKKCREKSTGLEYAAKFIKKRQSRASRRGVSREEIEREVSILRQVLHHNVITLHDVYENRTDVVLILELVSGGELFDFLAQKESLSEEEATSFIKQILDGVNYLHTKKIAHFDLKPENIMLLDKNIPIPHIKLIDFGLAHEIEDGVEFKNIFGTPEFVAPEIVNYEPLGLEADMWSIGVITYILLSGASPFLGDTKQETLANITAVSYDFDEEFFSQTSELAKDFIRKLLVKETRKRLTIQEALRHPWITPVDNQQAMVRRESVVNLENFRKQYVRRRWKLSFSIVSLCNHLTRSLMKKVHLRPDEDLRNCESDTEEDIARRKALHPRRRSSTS"}, "MEK5": {"molecular_target": "T4, MEK5 (Homo sapiens, UniProt Q13163)", "T4 construct": "gene MAP2K5", "T4 sequence (Q13163 1-448)": "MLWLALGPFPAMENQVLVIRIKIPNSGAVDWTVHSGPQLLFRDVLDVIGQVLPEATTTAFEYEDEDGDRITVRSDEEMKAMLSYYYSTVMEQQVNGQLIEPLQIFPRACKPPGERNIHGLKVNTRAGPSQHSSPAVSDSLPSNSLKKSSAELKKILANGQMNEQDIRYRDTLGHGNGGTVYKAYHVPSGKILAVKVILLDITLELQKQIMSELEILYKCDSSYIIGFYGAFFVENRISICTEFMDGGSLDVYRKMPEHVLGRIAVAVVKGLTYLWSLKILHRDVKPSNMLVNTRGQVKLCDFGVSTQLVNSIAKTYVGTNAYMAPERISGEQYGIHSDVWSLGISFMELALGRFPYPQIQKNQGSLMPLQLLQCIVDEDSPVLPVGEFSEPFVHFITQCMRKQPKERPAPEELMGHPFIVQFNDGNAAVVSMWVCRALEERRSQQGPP"}, "CDKL3": {"molecular_target": "CDKL3 (Homo sapiens, UniProt Q8IVW4)", "sequence (Q8IVW4 whole entry)": "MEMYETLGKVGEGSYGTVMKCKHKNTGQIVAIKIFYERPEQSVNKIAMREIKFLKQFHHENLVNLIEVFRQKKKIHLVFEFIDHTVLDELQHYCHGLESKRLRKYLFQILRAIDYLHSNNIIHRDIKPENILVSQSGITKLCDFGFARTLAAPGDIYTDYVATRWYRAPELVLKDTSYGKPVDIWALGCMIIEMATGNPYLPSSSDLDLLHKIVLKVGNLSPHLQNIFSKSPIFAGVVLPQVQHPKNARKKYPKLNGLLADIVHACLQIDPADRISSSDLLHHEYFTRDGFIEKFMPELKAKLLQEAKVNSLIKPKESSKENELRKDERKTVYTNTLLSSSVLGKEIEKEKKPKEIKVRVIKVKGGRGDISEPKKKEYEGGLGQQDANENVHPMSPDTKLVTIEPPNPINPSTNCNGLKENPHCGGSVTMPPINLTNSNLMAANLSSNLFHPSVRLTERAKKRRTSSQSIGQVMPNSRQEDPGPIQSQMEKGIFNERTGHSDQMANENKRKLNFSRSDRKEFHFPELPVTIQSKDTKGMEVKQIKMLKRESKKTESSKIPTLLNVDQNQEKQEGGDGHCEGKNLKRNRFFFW"}, "FGR": {"molecular_target": "FGR (Homo sapiens, UniProt P09769)", "sequence (P09769 whole entry)": "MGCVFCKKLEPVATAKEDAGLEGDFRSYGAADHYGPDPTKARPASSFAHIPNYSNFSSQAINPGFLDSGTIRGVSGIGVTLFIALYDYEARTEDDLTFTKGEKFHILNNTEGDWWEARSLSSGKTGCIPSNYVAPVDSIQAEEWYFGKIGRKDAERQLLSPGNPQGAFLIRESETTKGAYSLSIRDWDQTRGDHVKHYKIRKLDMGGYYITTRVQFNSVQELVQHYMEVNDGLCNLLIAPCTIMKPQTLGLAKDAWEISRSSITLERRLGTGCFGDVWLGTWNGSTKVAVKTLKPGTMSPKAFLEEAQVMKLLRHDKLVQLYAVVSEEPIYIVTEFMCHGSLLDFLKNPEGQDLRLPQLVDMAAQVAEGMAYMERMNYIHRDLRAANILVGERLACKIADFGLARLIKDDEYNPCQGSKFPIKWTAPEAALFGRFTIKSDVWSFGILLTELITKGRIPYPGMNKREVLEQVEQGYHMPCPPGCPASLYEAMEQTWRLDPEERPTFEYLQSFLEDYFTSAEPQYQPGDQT"}, "[1]": {"conditions": "read-out: Percent control / Tirabrutinib"}, "[2]": {"conditions": "read-out: Percent control / Zanubrutinib"}, "[3]": {"conditions": "read-out: Percent control / Acalabrutinib"}, "[4]": {"conditions": "read-out: Percent control / Ibrutinib"}}, "note": "Where two headings read alike, the source gives them in different places."}
{"smiles": "CC#CC(=O)N1CC[C@@H](n2c(=O)n(-c3ccc(Oc4ccccc4)cc3)c3c(N)ncnc32)C1", "note": "[Tirabrutinib]", "values": [{"measurement": "remaining binding at 0.3 µM", "setting": "PIK4CB; [1]", "value": 79, "unit": "%"}, {"measurement": "remaining binding at 0.3 µM", "setting": "PIM2; [1]", "value": 99, "unit": "%"}, {"measurement": "remaining binding at 0.3 µM", "setting": "EPHB6; [1]", "value": 70, "unit": "%"}, {"measurement": "remaining binding at 0.3 µM", "setting": "CSNK1A1L; [1]", "value": 93, "unit": "%"}, {"measurement": "remaining binding at 0.3 µM", "setting": "DAPK2; [1]", "value": 88, "unit": "%"}, {"measurement": "remaining binding at 0.3 µM", "setting": "MEK5; [1]", "value": 41, "unit": "%"}]}
{"smiles": "C=CC(=O)N1CCC([C@@H]2CCNc3c(C(N)=O)c(-c4ccc(Oc5ccccc5)cc4)nn32)CC1", "note": "[Zanubrutinib]", "values": [{"measurement": "remaining binding at 0.3 µM", "setting": "PIK4CB; [2]", "value": 94, "unit": "%"}, {"measurement": "remaining binding at 0.3 µM", "setting": "CDKL3; [2]", "value": 92, "unit": "%"}, {"measurement": "remaining binding at 0.3 µM", "setting": "PIM2; [2]", "value": 96, "unit": "%"}, {"measurement": "remaining binding at 0.3 µM", "setting": "EPHB6; [2]", "value": 96, "unit": "%"}, {"measurement": "remaining binding at 0.3 µM", "setting": "CSNK1A1L; [2]", "value": 83, "unit": "%"}, {"measurement": "remaining binding at 0.3 µM", "setting": "DAPK2; [2]", "value": 91, "unit": "%"}, {"measurement": "remaining binding at 0.3 µM", "setting": "FGR; [2]", "value": 66, "unit": "%"}]}
{"smiles": "CC#CC(=O)N1CCC[C@H]1c1nc(-c2ccc(C(=O)Nc3ccccn3)cc2)c2c(N)nccn12", "note": "[Acalabrutinib]", "values": [{"measurement": "remaining binding at 0.3 µM", "setting": "PIK4CB; [3]", "value": 72, "unit": "%"}, {"measurement": "remaining binding at 0.3 µM", "setting": "CDKL3; [3]", "value": 78, "unit": "%"}, {"measurement": "remaining binding at 0.3 µM", "setting": "EPHB6; [3]", "value": 85, "unit": "%"}, {"measurement": "remaining binding at 0.3 µM", "setting": "CSNK1A1L; [3]", "value": 84, "unit": "%"}, {"measurement": "remaining binding at 0.3 µM", "setting": "MEK5; [3]", "value": 71, "unit": "%"}, {"measurement": "remaining binding at 0.3 µM", "setting": "FGR; [3]", "value": 94, "unit": "%"}]}
{"smiles": "C=CC(=O)N1CCC[C@@H](n2nc(-c3ccc(Oc4ccccc4)cc3)c3c(N)ncnc32)C1", "note": "[Ibrutinib]", "values": [{"measurement": "remaining binding at 0.3 µM", "setting": "CDKL3; [4]", "value": 98, "unit": "%"}, {"measurement": "remaining binding at 0.3 µM", "setting": "PIM2; [4]", "value": 96, "unit": "%"}, {"measurement": "remaining binding at 0.3 µM", "setting": "EPHB6; [4]", "value": 46, "unit": "%"}, {"measurement": "remaining binding at 0.3 µM", "setting": "CSNK1A1L; [4]", "value": 93, "unit": "%"}, {"measurement": "remaining binding at 0.3 µM", "setting": "DAPK2; [4]", "value": 79, "unit": "%"}, {"measurement": "remaining binding at 0.3 µM", "setting": "MEK5; [4]", "value": 0.6, "unit": "%"}, {"measurement": "remaining binding at 0.3 µM", "setting": "FGR; [4]", "value": 8.6, "unit": "%"}]}
